The supplement of paper PMC10627819

How the values were obtained:
Settings in all cases: main component drawn
S. aureus Newman [1] = experiment: fitness (endpoint OD595 vs no drug) (fraction); higher = more growth
Outline: (§1)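 At 37 °C, bacteria in TSB, LB Lennox or CY were grown in 384-well plates from a starting OD595 of 0.01. OD595 was measured every 30 min for 14 h, with the first reading used as background. Fitness is the optical density at the switch to stationary phase as a fraction of the robust mean of no-drug control wells, capped at 1.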

S. aureus DSM 20231 = experiment: Bliss interaction score (quartile over a dose matrix) (fitness difference); higher = more antagonism (negative = synergy)
Outline: (§2)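 Fitness is OD595 at stationary-phase entry relative to the plate's robust no-drug mean, capped at 1. Single-drug fitness was inferred from combinations. The Bliss score is observed minus product-expected fitness, summarised by quartiles over technical, biological and donor/recipient replicates.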

S. aureus Newman [2] = experiment: as above
Outline: as §2

S. pneumoniae D39V [3] = experiment: as above
Outline: as §2

B. subtilis 168 [4] = experiment: as above
Outline: as §2

S. pneumoniae D39V [5] = experiment: fitness (endpoint OD595 vs no drug) (fraction); higher = more growth
Outline: as §1

B. subtilis 168 [6] = experiment: as above
Outline: as §1
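For Bliss interaction score (quartile over a dose matrix) in this document: first quartile when negative (synergy) and third quartile when positive (antagonism).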

CC[C@H](C)[C@H](N)C1=N[C@H](C(=O)N[C@@H](CC(C)C)C(=O)N[C@H](CCC(=O)O)C(=O)N[C@H](C(=O)N[C@H]2CCCCNC(=O)[C@H](CC(N)=O)NC(=O)[C@@H](CC(=O)O)NC(=O)[C@H](Cc3cnc[nH]3)NC(=O)[C@@H](Cc3ccccc3)NC(=O)[C@H]([C@@H](C)CC)NC(=O)[C@@H](CCCN)NC2=O)[C@@H](C)CC)CS1 [Bacitracin] + C/C(=C\C(=O)OCCCCCCCCC(=O)O)C[C@@H]1OC[C@H](C[C@@H]2O[C@H]2[C@@H](C)[C@H](C)O)[C@@H](O)[C@H]1O [Pseudomonic acid]
fitness, S. aureus Newman [1], one replicate
Settings | first compound 18.75 µg/mL | first compound 37.5 µg/mL | first compound 75 µg/mL
partner 0.0313 µg/mL | 0.0438 | 0.029 | 0.0257
partner 0.0625 µg/mL | 0.0196 | 0.0219 | 0.0077
partner 0.125 µg/mL | 0.0416 | 0.0193 | 0.0115

Settings | Bliss interaction score
B. subtilis 168 [4] | -0.0784
S. aureus DSM 20231 | 0.0189
S. aureus Newman [2] | 0.0307
S. pneumoniae D39V [3] | -0.0953

CC[C@H](C)[C@H](N)C1=N[C@H](C(=O)N[C@@H](CC(C)C)C(=O)N[C@H](CCC(=O)O)C(=O)N[C@H](C(=O)N[C@H]2CCCCNC(=O)[C@H](CC(N)=O)NC(=O)[C@@H](CC(=O)O)NC(=O)[C@H](Cc3cnc[nH]3)NC(=O)[C@@H](Cc3ccccc3)NC(=O)[C@H]([C@@H](C)CC)NC(=O)[C@@H](CCCN)NC2=O)[C@@H](C)CC)CS1 [Bacitracin] + CCCCCCCCCC(=O)N[C@@H]1[C@H]([C@@H]([C@H](O[C@H]1OC2=C3C=C4C=C2OC5=C(C=C(C=C5)[C@H]([C@H]6C(=O)N[C@@H](C7=C(C(=CC(=C7)O)OC8[C@H]([C@H]([C@@H]([C@H](O8)CO)O)O)O)C9=C(C=CC(=C9)[C@H](C(=O)N6)NC(=O)[C@@H]4NC(=O)[C@@H]1C2=CC(=CC(=C2)OC2=C(C=CC(=C2)[C@H](C(=O)N[C@H](CC2=CC(=C(O3)C=C2)Cl)C(=O)N1)N)O)O)O)C(=O)O)O[C@H]1[C@@H]([C@H]([C@@H]([C@H](O1)CO)O)O)NC(=O)C)Cl)CO)O)O [Teicoplanin]
fitness, S. aureus Newman [1]
Settings | first compound 18.75 µg/mL | first compound 37.5 µg/mL | first compound 75 µg/mL
partner 0.1562 µg/mL | 0.777 | 0.249 | 0.0017
partner 0.3125 µg/mL | 0.77 | 0.202 | 0.0042
partner 0.625 µg/mL | 0.683 | 0.206 | 0

fitness, S. aureus Newman [1], one replicate
Settings | first compound 18.75 µg/mL | first compound 37.5 µg/mL | first compound 75 µg/mL
partner 0.62 µg/mL | 0.543 | 0.0346 | 0.0093
partner 1.24 µg/mL | 0.424 | 0.0167 | 0.0003
partner 2.48 µg/mL | 0.0859 | 0.0387 | 0.0349

Settings | Bliss interaction score
B. subtilis 168 [4] | -0.119
S. aureus DSM 20231 | -0.0716
S. aureus Newman [2] | 0.0565
S. pneumoniae D39V [3] | -0.0678

CC(=O)NC[C@H]1CN(c2ccc(N3CCOCC3)c(F)c2)C(=O)O1 [Linezolid] + CCC(C)C1C(=O)NC(=C)C(=O)NC(C(=O)NC(CSCC(C(=O)N1)NC(=O)/C(=C/C)/NC(=O)C(C(C)CC)N)C(=O)NC2C(SCC(NC(=O)CNC(=O)C3CCCN3C2=O)C(=O)NC(CCCCN)C(=O)NC4C(SCC(NC(=O)CNC(=O)C(NC(=O)C(NC(=O)C(NC(=O)CNC4=O)C)CC(C)C)CCSC)C(=O)NC(CC(=O)N)C(=O)NC(CCSC)C(=O)NC(CCCCN)C(=O)NC5C(SCC6C(=O)NC(C(=O)NC(CSC(C(C(=O)N6)NC(=O)C(NC5=O)C)C)C(=O)NC(CO)C(=O)NC(C(C)CC)C(=O)NC(CC7=CN=CN7)C(=O)NC(C(C)C)C(=O)NC(=C)C(=O)NC(CCCCN)C(=O)O)CC8=CN=CN8)C)C)C)CC(C)C [Nisin]
Settings | fitness
B. subtilis 168 [6], first compound 0.125 µg/mL, partner 0.5 µg/mL | 0.503
B. subtilis 168 [6], first compound 0.125 µg/mL, partner 1 µg/mL | 0.421
B. subtilis 168 [6], first compound 0.125 µg/mL, partner 2 µg/mL | 0.111
B. subtilis 168 [6], first compound 0.25 µg/mL, partner 0.5 µg/mL | 0.167
B. subtilis 168 [6], first compound 0.25 µg/mL, partner 1 µg/mL | 0.0862
B. subtilis 168 [6], first compound 0.25 µg/mL, partner 2 µg/mL | 0.0407
S. pneumoniae D39V [5], first compound 0.105 µg/mL, partner 1.6 µg/mL | 0.0032
S. pneumoniae D39V [5], first compound 0.105 µg/mL, partner 3.2 µg/mL | 0.0264
S. pneumoniae D39V [5], first compound 0.105 µg/mL, partner 6.4 µg/mL | 0.015
S. pneumoniae D39V [5], first compound 0.2 µg/mL, partner 0.4275 µg/mL | 0.804
S. pneumoniae D39V [5], first compound 0.2 µg/mL, partner 0.855 µg/mL | 0.657
S. pneumoniae D39V [5], first compound 0.2 µg/mL, partner 1.71 µg/mL | 0.0574
S. pneumoniae D39V [5], first compound 0.21 µg/mL, partner 1.6 µg/mL | 0
S. pneumoniae D39V [5], first compound 0.21 µg/mL, partner 3.2 µg/mL | 0.0008
S. pneumoniae D39V [5], first compound 0.21 µg/mL, partner 6.4 µg/mL | 0
S. pneumoniae D39V [5], first compound 0.4 µg/mL, partner 0.4275 µg/mL | 0.63
S. pneumoniae D39V [5], first compound 0.4 µg/mL, partner 0.855 µg/mL | 0.314
S. pneumoniae D39V [5], first compound 0.4 µg/mL, partner 1.71 µg/mL | 0.0313
S. pneumoniae D39V [5], first compound 0.42 µg/mL, partner 1.6 µg/mL | 0.0074
S. pneumoniae D39V [5], first compound 0.42 µg/mL, partner 3.2 µg/mL | 0.0019
S. pneumoniae D39V [5], first compound 0.42 µg/mL, partner 6.4 µg/mL | 0.0156
S. pneumoniae D39V [5], first compound 0.8 µg/mL, partner 0.4275 µg/mL | 0.132
S. pneumoniae D39V [5], first compound 0.8 µg/mL, partner 0.855 µg/mL | 0.0545
S. pneumoniae D39V [5], first compound 0.8 µg/mL, partner 1.71 µg/mL | 0.0571

fitness, B. subtilis 168 [6], one replicate
Settings | first compound 0.0625 µg/mL | first compound 0.125 µg/mL | first compound 0.25 µg/mL | first compound 0.5 µg/mL
partner 0.5 µg/mL | 0.875 | – | – | 0.0342
partner 1 µg/mL | 0.743 | – | – | 0.0597
partner 1.25 µg/mL | – | 0.734 | 0.502 | 0.074
partner 1.6 µg/mL | – | 0.411 | 0.0282 | 0.027
partner 2 µg/mL | 0.547 | – | – | 0.0406
partner 2.5 µg/mL | – | 0.187 | 0.118 | 0.0568
partner 3.2 µg/mL | – | 0.0219 | 0.0214 | 0.042
partner 4 µg/mL | – | 0.038 | 0.0369 | 0.023
partner 5 µg/mL | – | 0.0523 | 0.0422 | 0.0652
partner 6.4 µg/mL | – | 0.0537 | 0.0573 | 0.0278
partner 8 µg/mL | – | 0.0224 | 0.0244 | 0.019
partner 16 µg/mL | – | 0.0095 | 0.0006 | 0.0145

Settings | Bliss interaction score
B. subtilis 168 [4] | -0.0535
S. aureus DSM 20231 | -0.0557
S. aureus Newman [2] | -0.0621
S. pneumoniae D39V [3] | -0.0674
